Laboratory results as given in US10669283B2, “Compound and pharmacologically acceptable salt thereof” (MEIJI SEIKA PHARMA CO., LTD., priority 2016, dated 2020).
Where two headings read alike, the source gives them in different places.

Experiments:
PDE4 = PDE4 inhibition, scintillation proximity assay (SPA); type: biochemical
In short: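 Compound pre-diluted 1:10 in 50 mM Tris-HCl pH 7.4, 8.3 mM MgCl2, 1.7 mM EGTA, 3 mg/mL BSA, then incubated with PDE4 and [2,8-3H]-cAMP for 120 min at room temperature. Product captured on ZnSO4-containing YSi-SPA beads for 15 min; radioactivity counted against no-enzyme blank and DMSO control.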

[1] = Hepatic metabolic stability (rat liver microsome method); type: in vitro ADME; settings: rat liver microsomes 0.5 mg/mL, test substance 1 μM, NADPH 1 mM, 37° C., 30 minutes
Experimental: Metabolic stability in rat liver microsomes was evaluated by the following method. In 100 mM of potassium phosphate buffer solution (pH 7.4), liver microsomes (concentration at reaction: 0.5 mg/mL) and the test substance (concentration at reaction: 1 μM) were preincubated at 37° C. Five minutes later, 100 mM of potassium phosphate buffer (pH 7.4) solution of NADPH (concentration at reaction: 1 mM) was mixed thereto to start the reaction. After a predetermined time passed, acetonitrile was mixed to the reaction mixture to stop the reaction. Here, the reaction time was 0 and 30 minutes, and drug concentration measurement was performed for each time period using LC-MS. The % remaining value of the test compound was calculated from the value for 0 minutes and the value for 30 minutes, using the calculation formula below: % Remaining=(Value for 30 Minutes/Value for 0 Minutes)×100
The results of measuring the rat liver microsome metabolic Stability (% remaining for 30-minute reaction) for the test compound by the above method were evaluated in accordance with the following evaluated basis; A: a % remaining rate of 75% or more, B: 60% or more and less than 75%, C: 45% or more and less than 60%, and D: less than 45%.

[2] = scintillation proximity assay, class symbols, read-out: PDE4 Inhibitory Activity
[3] = scintillation proximity assay (SPA), evaluated as classes A, B, C, read-out: PDE4 Inhibitory Activity (concentration for the inhibition rate of 50%)

SMILES	IC50 (PDE4; [2]) [nM]	Residual ratio (% remaining for 30-minute reaction) [1]	IC50 (PDE4; [3]) [nM]
CC(O)(CO)C(F)(F)Oc1ccc(-c2nccs2)c2oc(N3CC4CC(C3)N4)nc12 (racemic) [Example 326, 3-((2-(3,6-Diazabicyclo[3.1.1]heptan-3-yl)-7-(thiazol-2-yl)benzo[d]oxazol-4-yl)oxy)-3,3-difluoro-2-methylpropane-1,2-diol]	< 100	A (a % remaining rate of 75% or more)	–
CC(O)C(F)(F)Oc1ccc(-c2nccs2)c2oc(N3CC4CC(C3)N4)nc12 (single isomer, unassigned) [Example 251, 1-((2-(3,6-Diazabicyclo[3.1.1]heptan-3-yl)-7-(thiazol-2-yl)benzo[d]oxazol-4-yl)oxy)-1,1-difluoropropan-2-ol]	–	A (a % remaining rate of 75% or more)	< 100
CC(O)C(F)(F)Oc1ccc(-c2nccs2)c2oc(N3CC4CC(C3)N4)nc12 (single isomer, unassigned) [Example 252, 1-((2-(3,6-Diazabicyclo[3.1.1]heptan-3-yl)-7-(thiazol-2-yl)benzo[d]oxazol-4-yl)oxy)-1,1-difluoropropan-2-ol]	–	A (a % remaining rate of 75% or more)	< 100
CC(O)(CO)C(F)(F)Oc1ccc(-c2nccs2)c2oc(N3CC4CC(C3)N4)nc12 (single isomer, unassigned) [Example 364, 3-((2-(3,6-diazabicyclo [3.1.1]heptan-3-yl)-7-(thiazol-2-yl)benzo[d]oxazol-4-yl)oxy)-3,3-difluoro-2-methylpropane-1,2-diol]	< 100	A (a % remaining rate of 75% or more)	–
CC(O)(CO)C(F)(F)Oc1ccc(-c2nccs2)c2oc(N3CC4CC(C3)N4)nc12 (single isomer, unassigned) [Example 365, 3-((2-(3,6-diazabicyclo [3.1.1]heptan-3-yl)-7-(thiazol-2-yl)benzo[d]oxazol-4-yl)oxy)-3,3-difluoro-2-methylpropane-1,2-diol]	< 100	A (a % remaining rate of 75% or more)	–
CC(O)C(F)(F)Oc1ccc(-c2nccs2)c2oc(N3CC4CC(C3)N4O)nc12 (single isomer, unassigned) [Example 372, 3-(4-(1,1-difluoro-2-hydroxypropoxy)-7-(thiazol-2-yl)benzo [d]oxazol-2-yl)-3,6-diazabicyclo[3.1.1] heptan-6-ol]	< 100	B (60% or more and less than 75%)	–
CC(O)C(F)(F)Oc1ccc(-c2nccs2)c2oc(N3CC4CC(C3)N4O)nc12 (single isomer, unassigned) [Example 373, 3-(4-(1,1-difluoro-2-hydroxypropoxy)-7-(thiazol-2-yl)benzo [d]oxazol-2-yl)-3,6-diazabicyclo[3.1.1] heptan-6-ol]	< 100	B (60% or more and less than 75%)	–
FC(F)(F)Oc1c(Cl)cc(-c2nccs2)c2oc(N3CC4CC(C3)N4)nc12 [Example 3, 2-(3,6-Diazabicyclo[3.1.1]heptan-3-yl)-5-chloro-7-(thiazol-2-yl)-4-(trifluoromethoxy)benzo[d]oxazole]	–	B (60% or more and less than 75%)	< 100
FC(F)(F)Oc1c(Cl)cc(-n2cccn2)c2oc(N3CC4CCC(C3)N4)nc12 [Example 5, 2-(3,8-Diazabicyclo[3.2.1]octan-3-yl)-5-chloro-7-(1H-pyrazol-1-yl)-4-(trifluoromethoxy)benzo[d]oxazole]	–	B (60% or more and less than 75%)	< 100
ON1C2CC1CN(c1nc3c(OC(F)(F)F)ccc(-c4nccs4)c3o1)C2 [Example 380, 3-(7-(thiazol-2-yl)-4-(trifluoro-methoxy)benzo[d]oxazol-2-yl)-3,6-diazabicyclo [3.1.1]heptan-6-ol]	< 100	–	–
CC(C)(O)c1cc(-c2nccs2)c2oc(N3CC4CCC(C3)N4O)nc2c1C(F)(F)F [Example 381, 3-(5-(2-hydroxy-propan-2-yl)-7-(thiazol-2-yl)-4-(trifluoromethyl)benzo[d]oxazol-2-yl)-3,8-diaza-bicyclo[3.2.1] octan-8-ol]	> 1000	–	–
CC(O)c1cc(-c2nccs2)c2oc(N3CC4CCC(C3)N4O)nc2c1OC(F)(F)F (stereo not drawn) [Example 383, 3-(5-(1-hydroxy-ethyl)-7-(thiazol-2-yl)-4-(trifluoro-methoxy)benzo [d]oxazol-2-yl)-3,8-diazabicyclo[3.2.1] octan-8-ol]	> 1000	–	–
CC(O)c1cc(-c2nccs2)c2oc(N3CC4CCC(C3)N4O)nc2c1C(F)(F)F (stereo not drawn) [Example 384, 3-(5-(1-hydroxy-ethyl)-7-(thiazol-2-yl)-4-(trifluoro-methyl)benzo[d]oxazol-2-yl)-3,8-diazabicyclo[3.2.1] octan-8-ol]	> 1000	–	–
CNS(=O)(=O)c1ccc(-c2nccs2)c2oc(N3CC4CC(C3)N4)nc12 [Example 386, 2-(3,6-diazabicyclo[3.1.1]heptan-3-yl)-N-methyl-7-(thiazol-2-yl)benzo[d] oxazole-4-sulfonamide]	< 100	–	–
CN(C)S(=O)(=O)c1ccc(-c2nccs2)c2oc(N3CC4CC(C3)N4)nc12 [Example 388, 2-(3,6-diazabicyclo[3.1.1]heptan-3-yl)-N,N-dimethyl-7-(thiazol-2-yl)benzo [d]oxazole-4-sulfonamide]	< 100	–	–
CN(CCO)S(=O)(=O)c1ccc(-c2nccs2)c2oc(N3CC4CC(C3)N4)nc12 [Example 389, 2-(3,6-diazabicyclo[3.1.1]heptan-3-yl)-N-(2-hydroxyethyl)-N-methyl-7-(thiazol-2-yl)benzo[d] oxazole-4-sulfonamide]	< 100	–	–
O=S(=O)(c1ccc(-c2nccs2)c2oc(N3CC4CC(C3)N4)nc12)N1CCCC1 [Example 390, 2-(3,6-diazabicyclo[3.1.1]heptan-3-yl)-4-(pyrrolidin-1-yl-sulfonyl)-7-(thiazol-2-yl)benzo [d]oxazole]	< 100	–	–
COC(C)(C)C(F)(F)Oc1ccc(-c2nccs2)c2oc(N3CC4CC(C3)N4)nc12 [Example 393, 2-(3,6-diazabicyclo[3.1.1]heptan-3-yl)-4-(1,1-difluoro-2-methoxy-2-methylpropoxy)-7-(thiazol-2-yl) benzo[d]oxazole]	< 100	–	–
NS(=O)(=O)c1ccc(-c2nccs2)c2oc(N3CC4CC(C3)N4)nc12 [Example 396, 2-(3,6-diazabicyclo[3.1.1]heptan-3-yl)-7-(thiazol-2-yl) benzo[d]oxazole-4-sulfonamide]	< 100	–	–
O=S1(=O)CCN(c2ccc(-c3nccs3)c3oc(N4CC5CC(C4)N5)nc23)CC1 [Example 398, 4-(2-(3,6-diazabicyclo[3.1.1]heptan-3-yl)-7-(thiazol-2-yl)benzo[d]oxazol-4-yl)thiomorpholine 1,1-dioxide]	< 100	–	–
CCC(F)(F)Oc1ccc(-c2nccs2)c2oc(N3CC4CC(C3)N4)nc12 [Example 402, 2-(3,6-diazabicyclo [3.1.1]heptan-3-yl)-4-(1,1-difluoro-propoxy)-7-(thiazol-2-yl) benzo[d] oxazole]	< 100	–	–
FC(F)(Oc1ccc(-c2nccs2)c2oc(N3CC4CC(C3)N4)nc12)c1nc2ccccc2o1 [Example 403, 4-(benzo [d]oxazol-2-yldifluoro-methoxy)-2-(3,6-diazabicyclo [3.1.1]heptan-3-yl)-7-(thiazol-2-yl)benzo[d] oxazole]	< 100	–	–
FC(F)(/C=C/c1cccnc1)Oc1ccc(-c2nccs2)c2oc(N3CC4CC(C3)N4)nc12 [Example 406, (E)-2-(3,6-diazabicyclo [3.1.1]heptan-3-yl)-4-((1,1-difluoro-3-(pyridin-3-yl)allyl)oxy)-7-(thiazol-2-yl) benzo[d] oxazole]	< 100	–	–
CN(CCO)C(=O)C(F)(F)Oc1ccc(-c2nccs2)c2oc(N3CC4CC(C3)N4)nc12 [Example 407, 2-((2-(3,6-diazabicyclo [3.1.1]heptan-3-yl)-7-(thiazol-2-yl)benzo[d]oxazol-4-yl)oxy)-2,2-difluoro-N-(2-hydroxy-ethyl)-N-methyl-acetamide]	< 100	–	–
CN(C)C(=O)C(F)(F)Oc1ccc(-c2nccs2)c2oc(N3CC4CC(C3)N4)nc12 [Example 408, 2-((2-(3,6-diazabicyclo [3.1.1]heptan-3-yl)-7-(thiazol-2-yl)benzo[d]oxazol-4-yl)oxy)-2,2-difluoro-N,N-dimethyl-acetamide]	< 100	–	–
c1csc(-c2ccc(C3CCC3)c3nc(N4CC5CC(C4)N5)oc23)n1 [Example 414, 2-(3,6-diazabicyclo[3.1.1]heptan-3-yl)-4-cyclobutyl-7-(thiazol-2-yl)benzo[d]oxazole]	< 100	–	–
c1csc(-c2ccc(N3CCCC3)c3nc(N4CC5CC(C4)N5)oc23)n1 [Example 415, 2-(3,6-diazabicyclo[3.1.1]heptan-3-yl)-4-(pyrrolidin-1-yl)-7-(thiazol-2-yl)benzo [d]oxazole]	< 100	–	–
